The nature of the data set: xn = mol fraction of the nth substance listed. Particulars: 298.15 K, 100 kPa.

On to `CCCC[n+]1ccn(C)c1.[I-]` + CCO, for which the electrical conductivity runs as follows: (x1 = 0.0198) 0.493 S/m; (x1 = 0.0392) 0.821 S/m; (x1 = 0.0676) 1.2 S/m; (x1 = 0.148) 1.69 S/m; (x1 = 0.2876) 1.53 S/m; (x1 = 0.4094) 1.1 S/m. The molecule also returned an electrical conductivity (x1 = 1) of 0.0522 S/m.
For `CC[n+]1ccn(C)c1.[I-]` + CCO, the electrical conductivity (x1 = 0.0104) was 0.33 S/m; the electrical conductivity (x1 = 0.0208) was 0.581 S/m; the electrical conductivity (x1 = 0.0477) turned out to be 1.15 S/m; the electrical conductivity (x1 = 0.0766) was 1.62 S/m; the electrical conductivity (x1 = 0.1141) is 2.09 S/m; the electrical conductivity (x1 = 0.1621) stood at 2.51 S/m. The molecule further showed an electrical conductivity (x1 = 0.2282) of 2.75 S/m and an electrical conductivity (x1 = 0.3112) of 2.76 S/m.
As for `CCO` + CC[n+]1ccn(C)c1.[I-], the electrical conductivity (x2 = 0) is 0.0001 S/m.

These data come from a compilation of properties of binary mixtures (doi:10.1016/j.molliq.2022.118955).
